Test results reported in patent US8946237B2, “Pyrazolo[1,5-A]pyrimidines as mark inhibitors” (Merck Sharp & Dohme Corp., priority 2010, dated 2015).

Tests used:
[1] = Mean Arterial Pressure in anesthetized dogs; format: in vivo
From the text: The compounds of Formula I disclosed herein are also useful as blood pressure lowering agents and thus useful for the treating hypertension. Arterial hypertension has been identified as a strong causal factor in cardiovascular disease. An embodiment of the invention encompasses a method for treating or preventing cardiovascular disease comprising administering to a patient in need thereof a compound of Formula I, either as a single agent or in combination with other standard of care agents. It is postulated that compounds of the invention lower blood pressure by interfering with binding of tau and other microtubule associated proteins (MAP) to microtubules. Inhibiting the depolymerization of tubulin is the proposed cause of vasorelaxation leading to blood pressure lowering. […] Example 4 disclosed herein lowered Mean Arterial Pressure by 25% when it was dosed at 5 mg/kg cumulatively over the course of 90 minutes in anesthetized dogs. Example 9 disclosed herein lowered Mean Arterial Pressure by 89% when it was dosed at 10 mg/kg cumulatively over the course of 90 minutes in anesthetized dogs.

[2] = molecular target: T1, MARK3 (Homo sapiens, UniProt P27448); assay: MARK 3 Assay (HTRF, Cdc25C biotinylated peptide substrate); format: biochemical; details: 10 μM ATP, 10 nM recombinant MARK3 enzyme
T1 construct: purchased University of Dundee
Description: MARK3 activity was assayed in vitro using a Cdc25C biotinylated peptide substrate (Cell Signalling Technologies). The phosphopeptide product was quantitated using a Homogenous Time-Resolved Fluorescence (HTRF) assay system (Park et al., 1999, Anal. Biochem. 269:94-104). The reaction mixture contained 50 mM HEPES/Tris-HCl, pH 7.4; 10 mM NaCl, 5 mM MgCl2, 0.2 mM NaVO4, 5 mM β-glycerol phosphate, 0.1% Tween-20, 2 mM dithiothreitol, 0.1% BSA, 10 μM ATP, 1 μM peptide substrate, and 10 nM recombinant MARK3 enzyme (University of Dundee) in a final volume of 12 μL. The buffer additionally contained protease inhibitor cocktail (Roche EDTA-free, 1 tab per 50 ml). The kinase reaction was incubated for 2 hours at 25° C., and then terminated with 3 μl Stop/Detection Buffer (50 mM HEPES, pH 7.0, 16.6 mM EDTA, 0.5M KF, 0.1% Tween-20, 0.1% BSA, 2 μg/ml SLX^ent 665 (CISBIO), and 2 μg/mL Eu^3+ cryptate label antibody (CISBIO)). The reaction was allowed to equilibrate overnight at 0° C., and relative fluorescent units were read on an HTRF enabled plate reader (e.g. TECAN GENios Pro).
Inhibitor compounds were assayed in the reaction described above to determine compound IC50s. Aliquots of compound dissolved in DMSO were added to the reaction wells in a third-log dilution series covering a range of 1 nM to 10 μM. Relative phospho substrate formation, read as HTRF fluorescence units, was measured over the range of compound concentrations and a titration curve generated.

T1 sequence (P27448 whole entry, species assumed): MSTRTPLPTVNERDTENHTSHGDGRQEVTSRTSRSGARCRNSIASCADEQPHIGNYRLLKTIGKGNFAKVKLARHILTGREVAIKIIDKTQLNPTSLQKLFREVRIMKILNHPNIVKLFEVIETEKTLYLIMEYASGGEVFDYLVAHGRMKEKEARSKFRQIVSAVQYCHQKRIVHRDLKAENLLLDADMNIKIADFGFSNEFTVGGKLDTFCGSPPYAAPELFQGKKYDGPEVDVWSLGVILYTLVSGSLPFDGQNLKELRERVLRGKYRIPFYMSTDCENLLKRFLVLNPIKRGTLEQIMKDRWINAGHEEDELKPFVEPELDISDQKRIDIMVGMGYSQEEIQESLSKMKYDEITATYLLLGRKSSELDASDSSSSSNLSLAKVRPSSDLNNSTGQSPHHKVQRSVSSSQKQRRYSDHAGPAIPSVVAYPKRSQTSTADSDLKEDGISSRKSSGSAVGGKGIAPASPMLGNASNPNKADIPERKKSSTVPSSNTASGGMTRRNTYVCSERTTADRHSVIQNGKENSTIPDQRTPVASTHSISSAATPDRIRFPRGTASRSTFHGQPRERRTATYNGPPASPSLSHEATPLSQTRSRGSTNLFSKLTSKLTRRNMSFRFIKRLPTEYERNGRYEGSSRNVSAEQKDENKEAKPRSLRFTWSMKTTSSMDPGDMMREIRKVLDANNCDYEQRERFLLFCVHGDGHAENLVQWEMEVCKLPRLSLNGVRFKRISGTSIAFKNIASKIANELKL

In the case of `CCc1sc(C(=O)N[C@@H]2[C@@H](N)CCCC2(F)F)cc1-c1cnn2cc(Cl)cnc12` [Example 4, N-[(1R,6S)-6-Amino-2,2-difluorocyclohexyl]-4-(6-chloropyrazolo[1,5-a]pyrimidin-3-yl)-5-ethylthiophene-2-carboxamide], the “lowered Mean Arterial Pressure” value ([1]; 5 mg/kg cumulatively over the course of 90 minutes) is reported as 25% and the IC50 [2] is reported as 27 nM.
In the case of `Cc1sc(C(=O)N[C@@H]2[C@H](N)CCCC2(F)F)cc1-c1cnn2cc(OC(F)F)cnc12` [Example 9, N-[(1R,6R)-6-Amino-2,2-difluorocyclohexyl]-4-[6-(difluoromethoxy)pyrazolo[1,5-a]pyrimidin-3-yl]-5-methylthiophene-2-carboxamide], the “lowered Mean Arterial Pressure” value ([1]; 10 mg/kg cumulatively over the course of 90 minutes) is reported as 89% and the IC50 [2] is reported as 3 nM.
In the case of `Cc1sc(C(=O)N[C@@H]2[C@@H](N)CCCC2(F)F)cc1-c1cnn2cc(OC(F)F)cnc12` [Example 10, N-[(1R,6S)-6-amino-2,2-difluorocyclohexyl]-4-[6-(difluoromethoxy)pyrazolo[1,5-a]pyrimidin-3-yl]-5-methylthiophene-2-carboxamide], the IC50 [2] is reported as 5 nM.
Compound `CCc1sc(C(=O)N[C@@H]2[C@@H](N)CCCC2(F)F)cc1-c1cnn2cc(C(F)(F)F)cnc12` [Example 6, N-[(1R,6S)-6-Amino-2,2-difluorocyclohexyl]-5-ethyl-4-[6-(trifluoromethyl)pyrazolo[1,5-a]pyrimindin-3-yl]thiophene-2-carboxamide] has an IC50 [2] of 73 nM.
With `Cc1sc(C(=O)N[C@@H]2CCCC[C@@H]2N)cc1-c1cnn2cc(-c3cnn(C)c3)cnc12` [reference compound] the IC50 [2] was 1 nM.
Compound `CCOc1cnc2c(-c3cc(C(=O)N[C@@H]4[C@H](N)CCCC4(F)F)sc3CC)cnn2c1` [Example 15, N-[(1R,6R)-6-amino-2,2-difluorocyclohexyl]-4-(6-ethoxypyrazolo[1,5-a]pyrimidin-3-yl)-5-ethylthiophene-2-carboxamide] has an IC50 [2] of 2 nM.
